Measured values: EPA's ToxRefDB 2

Legend:
rat [1] = conditions: Sub-acute repeat dose toxicity, sprague dawley, Oral, Gavage/Intubation, dose end: 28 day, group: systemic
primate [2] = conditions: Sub-acute repeat dose toxicity; Oral; Gavage/Intubation; dose end: 35 day; group: systemic; systemic / in life observation / clinical signs / emesis
rabbit = conditions: Sub-acute repeat dose toxicity, Oral, Gavage/Intubation, dose end: 5 day, group: systemic
primate [3] = conditions: Sub-acute repeat dose toxicity; Oral; Gavage/Intubation; dose end: 5 day; group: systemic; systemic / clinical chemistry / alanine aminotransferase (alt/sgpt) / alanine aminotransferase (alt/sgpt) + systemic / clinical chemistry / …
primate [4] = conditions: Sub-acute repeat dose toxicity, Oral, Gavage/Intubation, dose end: 15 day, group: systemic
dog [5] = conditions: Sub-acute repeat dose toxicity; beagle; Oral; Gavage/Intubation; dose end: 5 day; group: systemic; systemic / in life observation / clinical signs / emesis
rat [6] = conditions: Sub-acute repeat dose toxicity, Oral, Gavage/Intubation, dose end: 14 day, group: systemic
primate [7] = conditions: Sub-acute repeat dose toxicity; Oral; Gavage/Intubation; dose end: 8 day; group: systemic; systemic / hematology / neutrophils / neutrophils + systemic / in life observation / body weight / body weight + systemic / in life …
rat [8] = conditions: Sub-acute repeat dose toxicity, Oral, Gavage/Intubation, dose end: 7 day, group: systemic
primate [9] = conditions: Subchronic oral toxicity in nonrodent, Gavage/Intubation, dose end: 42 day, group: systemic, systemic / clinical chemistry / [other] / [other] + systemic / clinical chemistry / cytochrome p450, nos / cytochrome p450, nos + systemic…
rat [10] = conditions: Sub-acute repeat dose toxicity; Oral; Gavage/Intubation; dose end: 14 day; group: systemic; systemic / clinical chemistry / protein / protein + systemic / hematology / erythrocyte (rbc) count differential / erythrocyte (rbc) + …
primate [11] = conditions: Sub-acute repeat dose toxicity; Oral; Gavage/Intubation; dose end: 7 day; group: systemic; systemic / in life observation / clinical signs / abnormal feces + systemic / hematology / erythrocyte (rbc) count differential / …
primate [12] = conditions: Sub-acute repeat dose toxicity; Oral; Gavage/Intubation; dose end: 14 day; group: systemic; systemic / clinical chemistry / [other] / [other] + systemic / clinical chemistry / testosterone / testosterone + systemic / hematology / …
rat [13] = conditions: Subchronic oral toxicity in rodents, sprague dawley, Feed, dose end: 90 day, group: systemic
dog [14] = conditions: Subchronic oral toxicity in nonrodent, beagle, Feed, dose end: 90 day, group: systemic
rat [15] = conditions: Multigenerational reproductive toxicity study, other, Oral, Feed, dose end: 2 generation
mouse [16] = conditions: Subchronic oral toxicity in rodents, cd1, Feed, dose end: 90 day, group: systemic
mouse [17] = conditions: Carcinogenicity, cd1, Oral, Feed, dose end: 18 month, group: systemic
rat [18] = conditions: Prenatal developmental toxicity study, other, Oral, Gavage/Intubation, dose end: 16 GD
dog [19] = conditions: Chronic toxicity, beagle, Oral, Feed, dose end: 52 week, group: systemic
[20] = systemic / hematology / fibrinogen / fibrinogen + systemic / hematology / leukocyte (wbc) count differential / leukocyte (wbc) + systemic / …
[21] = systemic / pathology microscopic / blood / vasculitis + systemic / pathology microscopic / kidney / degeneration + systemic / pathology …
[22] = systemic / in life observation / clinical signs / [other] + systemic / in life observation / clinical signs / abnormal feces + systemic / in…
[23] = systemic / in life observation / clinical signs / abnormal feces + systemic / in life observation / clinical signs / general pallor + …
[24] = systemic / clinical chemistry / alanine aminotransferase (alt/sgpt) / alanine aminotransferase (alt/sgpt) + systemic / clinical chemistry / …
[25] = systemic / in life observation / body weight / body weight + systemic / in life observation / clinical signs / abnormal feces + systemic / …
[26] = systemic / in life observation / clinical signs / nasal discharge + systemic / in life observation / clinical signs / salivation
[27] = systemic / pathology gross / intestine large / dilatation + systemic / pathology gross / intestine small / dilatation + systemic / pathology…
[28] = systemic / clinical chemistry / protein / protein + systemic / hematology / neutrophils / neutrophils + systemic / in life observation / …
[29] = systemic / in life observation / food consumption / food consumption + systemic / clinical chemistry / cytochrome p450, nos / cytochrome …
[30] = systemic / hematology / erythrocyte (rbc) count differential / erythrocyte (rbc) + systemic / hematology / hematocrit (hct) / hematocrit (…
[31] = systemic / pathology microscopic / liver / pigmentation
[32] = group: offspring, developmental / offspring survival late / lactation index / lactation index + developmental / offspring survival late / viability index / …
[33] = group: parental, systemic / hematology / methemoglobin / methemoglobin
[34] = group: reproductive, reproductive / reproductive performance / gestational length / gestational length + reproductive / reproductive performance / implantations…
[35] = systemic / hematology / hemoglobin (hgb) / hemoglobin (hgb) + systemic / in life observation / body weight / body weight gain + systemic / …
[36] = group: developmental, developmental / developmental malformation / bone / malformation, total + developmental / developmental malformation / bone / misshapen + …
[37] = group: maternal, reproductive / reproductive performance / resorptions / resorptions + reproductive / reproductive performance / estrous cycle / corpora …
[38] = systemic / clinical chemistry / alanine aminotransferase (alt/sgpt) / alanine aminotransferase (alt/sgpt) + systemic / pathology microscopic…

## CC(C)(O)c1ccc(CNC(=O)c2cccnc2Oc2ccc(F)cc2)cc1
Rat [1]; [20]
  LOAEL: > 20 mg/kg/day
  NOAEL: ≥ 20 mg/kg/day
Rat [1]; [21]
  LEL: 1 mg/kg/day
  NEL: < 1 mg/kg/day
Primate [2]
  LEL: 1 mg/kg/day
  LOAEL: > 1 mg/kg/day
  NEL: < 1 mg/kg/day
  NOAEL: ≥ 1 mg/kg/day
rabbit; [22]
  LOAEL: > 20 mg/kg/day
  NOAEL: ≥ 20 mg/kg/day
rabbit; [23]
  LEL: 1 mg/kg/day
  NEL: < 1 mg/kg/day
Primate [3]
  LEL: 20 mg/kg/day
  LOAEL: > 20 mg/kg/day
  NEL: < 20 mg/kg/day
  NOAEL: ≥ 20 mg/kg/day
Primate [4]; [24]
  LOAEL: > 20 mg/kg/day
  NOAEL: ≥ 20 mg/kg/day
Primate [4]; [25]
  LEL: 3 mg/kg/day
  NEL: < 3 mg/kg/day
Dog [5]
  LEL: 10 mg/kg/day
  LOAEL: > 10 mg/kg/day
  NEL: < 10 mg/kg/day
  NOAEL: ≥ 10 mg/kg/day
Rat [6]; [26]
  LEL: 3 mg/kg/day
  NEL: < 3 mg/kg/day
Rat [6]; [27]
  LOAEL: > 30 mg/kg/day
  NOAEL: ≥ 30 mg/kg/day
Primate [7]
  LEL: 1 mg/kg/day
  LOAEL: > 1 mg/kg/day
  NEL: < 1 mg/kg/day
  NOAEL: ≥ 1 mg/kg/day

## Cc1oc(-c2ccccc2)nc1CCOc1cccc2c1ccn2CCC(=O)O
Rat [8]; [28]
  LOAEL: > 2000 mg/kg/day
  NOAEL: ≥ 2000 mg/kg/day
Rat [8]; [29]
  LEL: 100 mg/kg/day
  NEL: < 100 mg/kg/day
Primate [9]
  LEL: 100 mg/kg/day
  LOAEL: > 100 mg/kg/day
  NEL: < 100 mg/kg/day
  NOAEL: ≥ 100 mg/kg/day
Rat [10]
  LEL: 10 mg/kg/day
  LOAEL: > 1000 mg/kg/day
  NEL: < 10 mg/kg/day
  NOAEL: ≥ 1000 mg/kg/day
Primate [11]
  LEL: 100 mg/kg/day
  LOAEL: > 2000 mg/kg/day
  NEL: < 100 mg/kg/day
  NOAEL: ≥ 2000 mg/kg/day
Primate [12]
  LEL: 100 mg/kg/day
  LOAEL: > 2000 mg/kg/day
  NEL: < 100 mg/kg/day
  NOAEL: ≥ 2000 mg/kg/day

## C#CCOc1cc(-n2nc3n(c2=O)CCCC3)c(Cl)cc1Cl [Azafenidin]
Rat [13]; [30]
  LOAEL: 71.9 mg/kg/day
  NEL: 4.02 mg/kg/day
  NOAEL: 24.2 mg/kg/day
Rat [13]; systemic / organ weight / kidney / relative to body weight
  LEL: 24.2 mg/kg/day
Dog [14]; systemic / pathology microscopic / liver / hypertrophy + systemic / pathology microscopic / liver / pigmentation
  LOAEL: 2.02 mg/kg/day
Dog [14]; systemic / pathology microscopic / liver / hypertrophy + systemic / pathology microscopic / liver / pigmentation + systemic / clinical …
  NOAEL: 0.34 mg/kg/day
Dog [14]; [31]
  LEL: 0.34 mg/kg/day
  NEL: < 0.34 mg/kg/day
Rat [15]; [32]
  LEL: 14.5 mg/kg/day
  LOAEL: 14.5 mg/kg/day
  NEL: 2.33 mg/kg/day
  NOAEL: 2.33 mg/kg/day
Rat [15]; [33]
  LEL: 0.389 mg/kg/day
  NEL: < 0.389 mg/kg/day
Rat [15]; group: parental, systemic / in life observation / food consumption / food consumption + systemic / in life observation / mortality / mortality
  LOAEL: 78.6 mg/kg/day
Rat [15]; group: parental, systemic / in life observation / food consumption / food consumption + systemic / in life observation / mortality / mortality + systemic / …
  NOAEL: 14.4 mg/kg/day
Rat [15]; [34]
  LEL: 14.4 mg/kg/day
  LOAEL: 14.4 mg/kg/day
  NEL: 2.31 mg/kg/day
  NOAEL: 2.31 mg/kg/day
Mouse [16]; [35]
  LOAEL: 144 mg/kg/day
  NEL: 7.94 mg/kg/day
  NOAEL: 47.2 mg/kg/day
Mouse [16]; [31]
  LEL: 47.2 mg/kg/day
Mouse [17]; systemic / pathology gross / full gross necropsy / proliferation
  NEL: 4 mg/kg/day
Mouse [17]; systemic / pathology microscopic / liver / adenoma + systemic / pathology microscopic / liver / pigmentation
  LOAEL: 39.8 mg/kg/day
Mouse [17]; systemic / pathology microscopic / liver / adenoma + systemic / pathology microscopic / liver / pigmentation + systemic / hematology / mean …
  NOAEL: 4 mg/kg/day
Mouse [17]; systemic / pathology microscopic / liver / adenoma + systemic / pathology microscopic / liver / pigmentation + systemic / pathology gross / …
  LEL: 39.8 mg/kg/day
Rat [18]; [36]
  LEL: 24 mg/kg/day
  LOAEL: 24 mg/kg/day
  NEL: 16 mg/kg/day
  NOAEL: 16 mg/kg/day
Rat [18]; group: maternal, reproductive / reproductive performance / estrous cycle / corpora lutea
  LEL: 16 mg/kg/day
Rat [18]; group: maternal, reproductive / reproductive performance / resorptions / resorptions
  LOAEL: 24 mg/kg/day
Rat [18]; [37]
  NEL: 8 mg/kg/day
  NOAEL: 16 mg/kg/day
Dog [19]; [38]
  LOAEL: 0.86 mg/kg/day
  NOAEL: 0.3 mg/kg/day
Dog [19]; systemic / pathology microscopic / liver / cytoplasmic alteration
  LEL: 0.3 mg/kg/day
Dog [19]; systemic / pathology microscopic / liver / cytoplasmic alteration + systemic / clinical chemistry / alanine aminotransferase (alt/sgpt) / …
  NEL: 0.16 mg/kg/day
